From PMC6044720 (ACS Omega, 2018)

Columns and labels:
Swiss albino mice [1] = experiment: Formalin-induced hyperalgesia; type: in vivo; conditions: for number of flinching in the inflammatory phase compared to control group: 10 mg kg^–1 i.p.; for inhibition in vivo at 10 mg/kg: Mus musculus, ip, read-out: % inhibition of algesia (analgesic effect), 10 mg kg^–1 i.p. 30 min before formalin, Swiss albino mice
Solubility observations = type: physicochemical; conditions: enzyme immunoassay medium, in words
COX-1 = COX-1 (Homo sapiens, UniProt P23219); experiment: Human whole blood COX-1 assay: calcium ionophore; type: cell-based; conditions: for effect on ionophore-stimulated TXB2 production: 1 μM, in words; for TXB2, +calcium ionophore: compound final concn 1 μM, control 2.00
Sequence of COX-1 (P23219 24-599): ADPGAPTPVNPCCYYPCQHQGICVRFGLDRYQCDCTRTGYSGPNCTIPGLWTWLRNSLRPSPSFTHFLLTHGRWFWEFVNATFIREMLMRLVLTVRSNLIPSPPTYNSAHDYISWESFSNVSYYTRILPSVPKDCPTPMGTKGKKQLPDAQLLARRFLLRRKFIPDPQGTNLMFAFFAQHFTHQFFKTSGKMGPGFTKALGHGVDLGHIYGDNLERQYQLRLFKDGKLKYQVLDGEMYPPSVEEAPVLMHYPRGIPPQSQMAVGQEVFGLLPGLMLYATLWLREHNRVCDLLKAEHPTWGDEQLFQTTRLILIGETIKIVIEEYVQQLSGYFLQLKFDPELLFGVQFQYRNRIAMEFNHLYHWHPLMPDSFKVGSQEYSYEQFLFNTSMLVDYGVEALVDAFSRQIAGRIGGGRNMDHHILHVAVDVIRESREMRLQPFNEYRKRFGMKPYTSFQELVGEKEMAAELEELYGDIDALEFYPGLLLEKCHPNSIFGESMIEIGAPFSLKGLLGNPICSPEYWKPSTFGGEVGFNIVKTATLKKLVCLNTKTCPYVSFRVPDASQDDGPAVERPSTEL

Swiss albino mice [2] = experiment: Acute oral toxicity, 14 days; type: in vivo
[3] = In vivo pharmacokinetic study; set-up: species or system rat
Swiss albino mice [4] = experiment: Carrageenan-induced paw inflammation; type: in vivo; conditions: for paw thickness compared to untreated control group: carrageenan, in words
COX-2 [5] = target: T1, COX-2 (Homo sapiens, UniProt P35354); experiment: Isothermal titration calorimetry with COX-2; type: binding; conditions: phosphate buffer pH 7.4
T1 sequence (P35354 18-604): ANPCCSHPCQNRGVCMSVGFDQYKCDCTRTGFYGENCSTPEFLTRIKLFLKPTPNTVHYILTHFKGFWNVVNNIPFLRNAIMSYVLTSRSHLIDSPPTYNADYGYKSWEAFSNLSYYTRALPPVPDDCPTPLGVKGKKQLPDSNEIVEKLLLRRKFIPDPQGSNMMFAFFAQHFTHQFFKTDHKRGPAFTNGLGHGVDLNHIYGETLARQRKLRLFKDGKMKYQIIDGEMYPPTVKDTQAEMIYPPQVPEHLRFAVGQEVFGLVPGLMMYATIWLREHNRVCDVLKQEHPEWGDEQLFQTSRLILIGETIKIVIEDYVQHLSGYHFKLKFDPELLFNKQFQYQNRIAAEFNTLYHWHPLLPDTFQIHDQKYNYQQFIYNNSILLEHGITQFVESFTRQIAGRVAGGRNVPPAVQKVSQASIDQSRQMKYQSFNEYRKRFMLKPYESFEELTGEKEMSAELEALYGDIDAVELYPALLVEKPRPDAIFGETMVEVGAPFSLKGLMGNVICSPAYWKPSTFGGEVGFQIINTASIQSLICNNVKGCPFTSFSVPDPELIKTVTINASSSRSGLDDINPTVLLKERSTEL

COX-2 [6] = target: T1, COX-2; experiment: Human whole blood COX-2 assay: LPS-stimulated PGE2 production; type: cell-based; conditions: for effect on PGE2 production in LPS-stimulated blood: 1 μM, in words; for PGE2, +LPS: compound final concn 1 μM, control 1.98
[7] = male wistar rat, 10 mg kg^–1 i.p.
[8] = male, Wistar, rat, serum, ip, 10 mg/kg

| SMILES | number of flinching in the inflammatory phase compared to control group (Swiss albino mice [1]; in words) | inhibition in vivo at 10 mg/kg (Swiss albino mice [1]) | effect on ionophore-stimulated TXB2 production (COX-1) | TXB2, +calcium ionophore (COX-1) | effect on PGE2 production in LPS-stimulated blood (COX-2 [6]) | PGE2, +LPS (COX-2 [6]) | also measured |
| --- | --- | --- | --- | --- | --- | --- | --- |
| O=Cc1cn(-c2nc(N3CCOCC3)nc(N3CCOCC3)n2)c2ccccc12 [Compound 2, 1-(4,6-Dimorpholino-1,3,5-triazin-2-yl)-1H-indole-3-carbaldehyde] | significantly decreased | 57.4% | – | – | – | – | – |
| O=C1/C(=C\c2cn(-c3nc(N4CCOCC4)nc(N4CCOCC4)n3)c3ccccc23)c2ccccc2N1c1c(Cl)cccc1Cl [Compound 3, (Z)-1-(2,6-Dichlorophenyl)-3-((1-(4,6-dimorpholino-1,3,5-triazin-2-yl)1H-indolyl)methylene)indolin-2-one] | significantly decreased | 55.6% | – | – | – | – | – |
| O=C1Nc2ccccc2/C1=C/c1cn(-c2nc(N3CCOCC3)nc(N3CCOCC3)n2)c2ccccc12 [Compound 4, (Z)-3-((1-(4,6-Dimorpholino-1,3,5-triazin-2-yl)-1H-indol-3-yl)methylene)indolin-2-one] | significantly decreased | 61.3% | – | – | – | – | – |
| CN1C(=O)C(=Cc2cn(-c3nc(N4CCOCC4)nc(N4CCOCC4)n3)c3ccccc23)C(=O)N(C)C1=O [Compound 5, 1,3-Dimethyl-5-((1-(4,6-dimorpholino-1,3,5-triazin-2-yl)-1H-indol-3-yl)methylene)pyrimidine-2,4,6(1,3,5H)-trione] | – | – | – | – | – | – | solubility in the assay medium (Solubility observations): poor solubility |
| CC1=NN(c2cccc(Cl)c2)C(=O)/C1=C\c1cn(-c2nc(N3CCOCC3)nc(N3CCOCC3)n2)c2ccccc12 [Compound 6, (4Z)-1-(3-Chlorophenyl)-3-methyl-4-((1-(4,6-dimorpholino-1,3,5-triazin-2-yl)-1H-indol-3-yl)methylene)-1H-pyrazol-5(4H)-one] | significantly decreased | – | did not affect | 1.85 ng/mL | significantly decreased | 0.91 ng/mL | mortality or gross behavioral impairment (Swiss albino mice [2]; 50, 300 and 2000 mg kg^–1, after the 14th day): no mortality or any gross behavioral impairment; maximum tolerable dose (Swiss albino mice [2]; Swiss albino mice): > 2000 mg kg^–1; tissue histology (liver, kidney, myocardium) (Swiss albino mice [2]; after 14 days, H and E staining): no significant lesions except for some degree of congestion; toxicity (Swiss albino mice [2]; dose of 2000 mg kg^–1): did not exhibit toxicity; analgesic effect on A23187 pretreatment (Swiss albino mice [1]; TXA2 stimulator A23187, in words): did not alter; analgesic effect on pretreatment with L-arginine or L-NAME (Swiss albino mice [1]; given 30 min before compound, in words): did not alter; analgesic effect on pretreatment with substance P (Swiss albino mice [1]; substance P 30 min before compound, in words): significantly attenuated; Cl/F_obs [3, 7]: 0.0008011 (mg)/(μg/mL)/min; Vz/F_obs [3, 7]: 0.3796 (mg)/(μg/mL); Cmax [3, 8]: 58.5 µg/mL; MRT inf [3, 8]: 8.16 h; Tmax [3, 8]: 3 h; k el [3, 8]: 3.52e-05 s⁻¹; half-life ([3]; male, Wistar, rat, serum, ip, 10 mg/kg, half-life, male wistar rat, 10 mg kg^–1 i.p.): 5.5 h; half-life ([3]; male, Wistar, rat, serum, ip, 10 mg/kg, t1/2, male wistar rat, 10 mg kg^–1 i.p.): 5.47 h; decrease in paw thickness (Swiss albino mice [4]; 30 min after carrageenan): 18%; decrease in paw thickness (Swiss albino mice [4]; 60 min after carrageenan): 14%; paw thickness compared to untreated control group (Swiss albino mice [4]): decrease the paw thickness significantly; ΔH COX-2 (ITC) (COX-2 [5]): -9.685 kcal/mol |
| O=C1Nc2ccccc2/C1=C/c1cn(-c2nc(N3CCCCC3)nc(N3CCOCC3)n2)c2ccccc12 [Compound 10, (Z)-3-((1-(4-Morpholino-6-(piperidin-1-yl)-1,3,5-triazin-2-yl)-1H-indol-3-yl)methylene)indolin-2-one] | significantly decreased | 54.9% | did not affect | 1.55 ng/mL | significantly decreased | 1.02 ng/mL | – |
| CC1=NN(c2cccc(Cl)c2)C(=O)/C1=C\c1cn(-c2nc(N3CCCCC3)nc(N3CCOCC3)n2)c2ccccc12 [Compound 12, (Z)-1-(3-Chlorophenyl)-3-methyl-4-((1-(4-morpholino-6-(piperidin-1-yl)-1,3,5-triazin-2-yl)-1H-indol-3-yl)methylene)-1H-pyrazol-5(4H)-one] | significantly decreased | 74.2% | did not affect | 1.75 ng/mL | significantly decreased | 0.95 ng/mL | paw thickness compared to untreated control group (Swiss albino mice [4]): decrease the paw thickness significantly |
| CC1=NN(c2cccc(Cl)c2)C(=O)/C1=C\c1cn(-c2nc(N3CCCC3)nc(N3CCOCC3)n2)c2ccccc12 [Compound 17, (Z)-1-(3-Chlorophenyl)-3-methyl-4-((1-(4-morpholino-6-(pyrrolidin-1-yl)-1,3,5-triazin-2-yl)-1H-indol-3-yl)methylene)-1H-pyrazol-5(4H)-one] | significantly decreased | – | did not affect | 1.70 ng/mL | significantly decreased | 1.00 ng/mL | – |
| CC1=NN(c2cccc(Cl)c2)C(=O)/C1=C\c1cn(-c2nc(Cl)nc(N3CCOCC3)n2)c2ccccc12 [Compound 18, (Z)-4-((1-(4-Chloro-6-morpholino-1,3,5-triazin-2-yl)-1H-indol-3-yl)methylene)-1-(3-chlorophenyl)-3-methyl-1H-pyrazol-5(4H)-one] | significantly decreased | 59% | – | – | – | – | – |
| CC1=NN(c2cccc(Cl)c2)C(=O)/C1=C\c1cn(-c2nc(N3CCCCC3)nc(N3CCCCC3)n2)c2ccccc12 [Compound 22, (Z)-1-(3-Chlorophenyl)-4-((1-(4,6-di(piperidin-1-yl)-1,3,5-triazin-2-yl)-1H-indol-3-yl)methylene)-3-methyl-1H-pyrazol-5(4H)-one] | significantly decreased | 61.9% | – | – | – | – | – |
| O=C(O)Cc1ccccc1Nc1c(Cl)cccc1Cl [Diclofenac, reference compound] | significantly decreased | – | – | – | – | – | – |
| COc1ccc2c(c1)c(CC(=O)O)c(C)n2C(=O)c1ccc(Cl)cc1 [Indomethacin, reference compound] | – | – | – | – | – | – | decrease in paw thickness (Swiss albino mice [4]; 30 min after carrageenan): 30%; decrease in paw thickness (Swiss albino mice [4]; 60 min after carrageenan): 25%; paw thickness compared to untreated control group (Swiss albino mice [4]): decrease the paw thickness significantly |
